The source made the active and inactive calls. The rule behind the calls is not given here.
What was measured:
Malme-3M = experiment: Antiproliferative activity against human Malme-3M cells assessed as cell growth inhibition at 10 uM by SRB assay; type: functional, cell-based
MDA-MB-435 = experiment: Antiproliferative activity against human MDA-MB-435 cells assessed as cell growth inhibition at 10 uM by SRB assay; type: functional, cell-based
SK-MEL-28 = experiment: Antiproliferative activity against human SK-MEL-28 cells assessed as cell growth inhibition at 10 uM by SRB assay; type: functional, cell-based
SK-MEL-5 = experiment: Antiproliferative activity against human SK-MEL-5 cells assessed as cell growth inhibition at 10 uM by SRB assay; type: functional, cell-based
SK-MEL-2 = experiment: Antiproliferative activity against human SK-MEL-2 cells assessed as cell growth inhibition at 10 uM by SRB assay relative to control; type: functional; details: Homo sapiens, SK-MEL-2, dose 10 µM
UACC-257 = experiment: Antiproliferative activity against human UACC-257 cells assessed as cell growth inhibition at 10 uM by SRB assay relative to control; type: functional
UACC-62 = experiment: Antiproliferative activity against human UACC-62 cells assessed as cell growth inhibition at 10 uM by SRB assay relative to control; type: functional
M14 = experiment: Antiproliferative activity against human M14 cells assessed as cell growth inhibition at 10 uM by SRB assay relative to control; type: functional
LOX IMVI = experiment: Antiproliferative activity against human LOX IMVI cells assessed as cell growth inhibition at 10 uM by SRB assay relative to control; type: functional
RPMI-8226 = experiment: Antiproliferative activity against human RPMI-8226 cells assessed as cell growth inhibition at 10 uM by SRB assay relative to control; type: functional
SF-539 = experiment: Antiproliferative activity against temozolomide resistant human SF-539 cells assessed as cell growth inhibition at 10 uM by SRB assay; type: functional, cell-based
SNB-75 = experiment: Antiproliferative activity against temozolomide resistant human SNB-75 cells assessed as cell growth inhibition at 10 uM by SRB assay; type: functional, cell-based
MCF7 = experiment: Antiproliferative activity against estrogen receptor positive human MCF7 cells assessed as inhibition of cell growth at 10 uM by SRB assay relative to control; type: functional
T47D = experiment: Antiproliferative activity against human T47D cells assessed as inhibition of cell growth at 10 uM by SRB assay relative to control; type: functional
BT-549 = experiment: Antiproliferative activity against triple negative human BT-549 cells assessed as inhibition of cell growth at 10 uM by SRB assay relative to control; type: functional
MDA-MB-231 = experiment: Antiproliferative activity against human MDA-MB-231 cells assessed as inhibition of cell growth at 10 uM by SRB assay relative to control; type: functional

## CN(C)/N=N/c1[nH]cnc1C(N)=O [DACARBAZINE]
Malme-3M
  inhibition: inactive
MDA-MB-435
  inhibition: inactive
SK-MEL-28
  inhibition: inactive
SK-MEL-5
  inhibition: inactive
SK-MEL-2
  inhibition at 10 µM: 15%
UACC-257
  inhibition at 10 µM: 15%
UACC-62
  inhibition at 10 µM: 25.6%
M14
  inhibition at 10 µM: 36.5%
LOX IMVI
  inhibition at 10 µM: 49.3%

## COc1cc2oc(-c3cccc(C(=O)Nc4ccc(C)cc4)c3)cc(=O)c2c(O)c1OC
RPMI-8226
  inhibition at 10 µM: 82.6%
SF-539
  inhibition: Active
SNB-75
  inhibition: Active

## CN(Cc1cnc2nc(N)nc(N)c2n1)c1ccc(C(=O)N[C@@H](CCC(=O)O)C(=O)O)cc1 [METHOTREXATE]
MCF7
  inhibition at 10 µM: 82.8%
T47D
  inhibition at 10 µM: 53.8%
BT-549
  inhibition at 10 µM: 53.1%
MDA-MB-231
  inhibition at 10 µM: 40.1%
